Values quoted from earlier work in patent publication US20140023696A1, “TREATMENT FOR IDIOPATHIC PULMONARY FIBROSIS” (priority 2012, published 2014).

System: patients with IPF
Conditions: added to prednisone and azathioprine; 12 months of follow up

CC(=O)N[C@@H](CS)C(=O)O [N-acetylcysteine]
effect on FVC and DLCO: slight benefit
